This note sets out measurements from patent US20230091225A1, “Bifunctional chimeric heterocyclic compounds for targeted degradation of androgen receptors and use thereof” (HINOVA PHARMACEUTICALS INC., priority 2019, published 2023).

In this assay the target is T1, androgen receptor (AR) (Homo sapiens, UniProt P10275).
T1 sequence (P10275 1-920): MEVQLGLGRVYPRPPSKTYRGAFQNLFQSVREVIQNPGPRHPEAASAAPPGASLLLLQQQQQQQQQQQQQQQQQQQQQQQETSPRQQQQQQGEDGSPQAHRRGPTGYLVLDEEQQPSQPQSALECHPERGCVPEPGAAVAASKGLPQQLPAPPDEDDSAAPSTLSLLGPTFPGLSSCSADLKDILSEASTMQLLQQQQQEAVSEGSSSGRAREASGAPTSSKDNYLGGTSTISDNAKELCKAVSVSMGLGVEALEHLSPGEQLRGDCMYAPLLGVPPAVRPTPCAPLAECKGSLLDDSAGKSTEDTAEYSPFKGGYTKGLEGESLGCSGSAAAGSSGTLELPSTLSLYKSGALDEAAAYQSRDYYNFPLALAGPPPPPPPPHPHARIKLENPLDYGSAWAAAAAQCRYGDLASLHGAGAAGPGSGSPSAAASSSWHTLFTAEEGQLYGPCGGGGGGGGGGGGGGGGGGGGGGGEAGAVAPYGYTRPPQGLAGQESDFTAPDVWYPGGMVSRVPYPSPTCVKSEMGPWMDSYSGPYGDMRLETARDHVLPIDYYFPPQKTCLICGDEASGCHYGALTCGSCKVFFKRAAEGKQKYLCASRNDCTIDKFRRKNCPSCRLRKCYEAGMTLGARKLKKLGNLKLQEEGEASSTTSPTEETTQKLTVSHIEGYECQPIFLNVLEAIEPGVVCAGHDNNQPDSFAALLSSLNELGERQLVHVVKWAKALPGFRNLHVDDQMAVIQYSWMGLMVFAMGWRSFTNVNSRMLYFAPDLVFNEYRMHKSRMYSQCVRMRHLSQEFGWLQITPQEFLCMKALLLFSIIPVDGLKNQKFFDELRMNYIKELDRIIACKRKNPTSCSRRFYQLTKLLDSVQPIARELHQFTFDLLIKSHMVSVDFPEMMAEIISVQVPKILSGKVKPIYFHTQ
Put plainly: Degradation of androgen receptor (AR) protein in VCaP cells by ELISA. The class given is cell-based. Particulars: for Dmax: VCaP. Background: In an ELISA, binding on a coated surface is turned into a signal by an enzyme label.

Setting [1] is: AR degradation, VCaP cells, 16 h, ELISA, Table 3-1.
Where [2] appears, read: AR degradation, VCaP cells, 16 h, ELISA, Table 3-1, read-out: DC50.
Where [3] appears, read: AR degradation, VCaP cells, 16 h, ELISA, Table 3-1, read-out: Dmax (%).
Where [4] appears, read: AR degradation, VCaP cells, 16 h, ELISA, Table 3-2, read-out: DC50.

Read-outs that look alike come from different tables or passages of the source.

Consider `N#Cc1ccc(OC2CCC(NC(=O)c3ccc(N4CCC(CN5CCC6(CC5)CN(c5ccc7c(c5)CN(C5CCC(=O)NC5=O)C7=O)C6)CC4)nn3)CC2)cc1Cl` (centres unmarked) [Compound 196, N-((1r,4r)-4-(3-chloro-4-cyanophenoxy)cyclohexyl)-6-(4-((2-(2-(2,6-dioxopiperidin-3-yl)-1-oxoisoindolin-5-yl)-2,7-diazaspiro[3.5]nonan-7-yl)methyl)piperidin-1-yl)pyridazine-3-formamide], for which, under setting [1], the “Dmax (%)” value is reported as “++++ (>80%)”. Further, under setting [2], the DC50 is under 10 nM. With `CC1(C)[C@H](Oc2ccc(C#N)c(Cl)c2)C(C)(C)[C@H]1N1Cc2nc(C#CC3CCC(N4CCC5(CN(c6ccc7c(c6)C(=O)N(C6CCC(=O)NC6=O)C7=O)C5)C4)CC3)ccc2C1=O` (some centres unmarked) [Compound 373], the DC50 under setting [2] was over 300 nM.

For `CC1(C)[C@H](Oc2ccc(C#N)c(Cl)c2)C(C)(C)[C@H]1N1Cc2nc(C#CC3CCC(N4CCC5(CCN(c6cc7c(cc6F)C(=O)N(C6CCC(=O)NC6=O)C7=O)C5)C4)CC3)ccc2C1=O` (some centres unmarked) [Compound 366, 2-Chloro-4-((1r,3r)-3-(2-((4-(7-(2-(2,6-dioxopiperidin-3-yl)-6-fluoro-1,3-dioxoisoindolin-5-yl)-2,7-diazaspiro[4.4]nonan-2-yl)cyclohexyl)ethynyl)-5-oxo-5,7-dihydro-6H-pyrrolo[3,4-b]pyridin-6-yl)-2,2,4,4-tetramethylcyclobutoxy) benzonitrile], under setting [1], the “Dmax (%)” value was “++++ (>80%)”. In addition, the DC50 under setting [2] is under 10 nM. Regarding `N#Cc1ccc(O[C@H]2CC[C@H](NC(=O)c3cnc(N4CC5(CCN(C6CCN(c7cc8c(cc7F)C(=O)N(C7CCC(=O)NC7=O)C8=O)CC6)CC5)C4)cn3)CC2)cc1Cl` (some centres unmarked) [Compound 242, N-((1r,4r)-4-(3-chloro-4-cyanophenoxy)cyclohexyl)-5-(7-(1-(2-(2,6-dioxopiperidin-3-yl)-6-fluoro-1,3-dioxoisoindolin-5-yl)piperidine-4-yl)-2,7-diazaspiro[3.5]nonan-2-yl)pyrazine-2-carboxamide], under setting [2], the DC50 is under 10 nM. The Dmax under setting [3] is over 80%. As to `N#Cc1ccc(O[C@H]2CC[C@H](NC(=O)c3cnc(N4CC5(CCN(C6CCN(c7cc8c(cc7F)C(=O)N(C7CCC(=O)NC7=O)C8=O)CC6)CC5)C4)nc3)CC2)cc1Cl` (some centres unmarked) [Compound 273, N-((1r,4r)-4-(3-chloro-4-cyanophenoxy)cyclohexyl)-2-(7-(1-(2-(2,6-dioxopiperidin-3-yl)-6-fluoro-1,3-dioxoisoindolin-5-yl)piperidine-4-yl)-2,7-diazaspiro[3.5]nonan-2-yl)pyrimidine-5-carboxamide], the Dmax fell in the range of 60 to 80%. In addition, under setting [2], the DC50 is 10 to 100 nM. Regarding `CC1(C)[C@H](Oc2ccc(C#N)c(Cl)c2)C(C)(C)[C@H]1N1Cc2nc(C#CC3CCC(N4CC5(CN(c6ccc7c(c6)C(=O)N([C@@H]6CCC(=O)NC6=O)C7=O)C5)C4)CC3)ccc2C1=O` (some centres unmarked) [Compound 351, 2-Chloro-4-((1r,3r)-3-(2-((4-(6-(2-(2,6-dioxopiperidin-3-yl)-1,3-dioxoisoindolin-5-yl)-2,6-diazaspiro[3.3]heptane-2-yl)cyclohexyl)ethynyl)-5-oxo-5,7-dihydro-6H-pyrrolo[3,4-b]pyridin-6-yl)-2,2,4,4-tetramethylcyclobutoxy) benzonitrile], the “Dmax (%)” value was “++++ (key: A: >80%; B: 79%-50%; C: 49%-25%; D: <25%)”. Moreover, under “read-out: DC50”, the DC50 was under 10 nM.

Take `CC1(C)[C@H](Oc2ccc(C#N)c(Cl)c2)C(C)(C)[C@H]1N1Cc2nc(C#CC3CCC(N4CC5CC4CN5c4ccc5c(c4)C(=O)N(C4CCC(=O)NC4=O)C5=O)CC3)cnc2C1=O` (some centres unmarked) [Compound 388, 2-Chloro-4-((1r,3r)-3-(2-((4-(5-(2-(2,6-dioxopiperidin-3-yl)-1,3-dioxoisoindolin-5-yl)-2,5-diazabicyclo[2.2.1]heptan-2-yl)cyclohexyl)ethynyl)-5-oxo-5,7-dihydro-pyrrolo[3,4-b]pyrazine-26-yl)-2,2,4,4-tetramethylcyclobutoxy) benzonitrile]: the “Dmax (%)” value (AR degradation, VCaP cells, 16 h, ELISA, Table 3-2) was “++ (60%-40%)”. Also, under setting [4], the DC50 fell in the range of 100 to 300 nM.

As to `N#Cc1ccc(O[C@H]2CC[C@H](NC(=O)c3ccc(N4CC5(CCN(C6CCN(c7cc8c(cc7F)C(=O)N(C7CCC(=O)NC7=O)C8=O)CC6)CC5)C4)nn3)CC2)cc1Cl` (some centres unmarked) [Compound 97, N-((1r,4r)-4-(3-chloro-4-cyanophenoxy)cyclohexyl)-6-(7-(1-(2-(2,6-dioxopiperidin-3-yl)-6-fluoro-1,3-dioxoisoindolin-5-yl)piperidine-4-yl)-2,7-diazaspiro[3.5]nonan-2-yl)pyridazine-3-carboxamide], the Dmax is over 80%. Moreover, the DC50 under setting [2] is under 10 nM. Regarding `N#Cc1ccc(O[C@H]2CC[C@H](NC(=O)c3cnc(N4CCC(N5CC6(CCN(c7cc8c(cc7F)C(=O)N(C7CCC(=O)NC7=O)C8=O)CC6)C5)CC4)cn3)CC2)cc1C(F)(F)F` (some centres unmarked) [Compound 236, N-((1r,4r)-4-(4-cyano-3-(trifluoromethyl)phenoxy)cyclohexyl)-5-(4-(7-(2-(2,6-dioxopiperidin-3-yl)-6-fluoro-1,3-dioxoisoindolin-5-yl)-2,7-diazaspiro[3.5]nonan-2-yl)piperidin-1-yl)pyrazine-2-carboxamide], the DC50 under setting [2] was under 10 nM. For the same compound, the Dmax under setting [3] is over 80%.

On to `N#Cc1ccc(O[C@H]2CC[C@H](NC(=O)c3ccc(N4CC5(CC(N6CCN(c7cc8c(cc7F)C(=O)N(C7CCC(=O)NC7=O)C8=O)CC6)C5)C4)nn3)CC2)cc1Cl` (some centres unmarked) [Compound 129, N-((1r,4r)-4-(3-chloro-4-cyanophenoxy)cyclohexyl)-6-(6-(4-(2-(2,6-dioxopiperidin-3-yl)-6-fluoro-1,3-dioxoisoindolin-5-yl)piperazin-1-yl)-2-azaspiro[3.3]heptan-2-yl)pyridazine-3-amide], for which the DC50 under setting [2] is under 10 nM. Under setting [3], the Dmax is over 80%.

For the compound `CC1(C)[C@H](Oc2ccc(C#N)c(Cl)c2)C(C)(C)[C@H]1N1Cc2nc(C#CC3CCC(N4CC5(CN(c6cc7c(cc6F)C(=O)N(C6CCC(=O)NC6=O)C7=O)C5)C4)CC3)ccc2C1=O` (some centres unmarked) [Compound 341], the DC50 under setting [2] was 10 to 100 nM. Also, the Dmax under setting [3] fell in the range of 60 to 80%. Taken in the same sequence, the figures for `N#Cc1ccc(O[C@H]2CC[C@H](NC(=O)c3ccc(N4CCC(CN5CCC6(CC5)CN(c5ccc7c(=O)n(C8CCC(=O)NC8=O)cnc7c5)C6)CC4)nn3)CC2)cc1Cl` (some centres unmarked) [Compound 247] were under 10 nM and over 80%. On to `CC1(C)[C@H](Oc2ccc(C#N)c(Br)c2)C(C)(C)[C@H]1N1Cc2nc(C#C[C@H]3CC[C@H](N4CCN(c5cc6c(cc5F)C(=O)N(C5CCC(=O)NC5=O)C6=O)CC4)CC3)ccc2C1=O` (some centres unmarked) [Compound 397], for which, under setting [4], the DC50 was 10 to 100 nM. In addition, the Dmax (AR degradation, VCaP cells, 16 h, ELISA, Table 3-2, read-out: Dmax (%)) was over 80%. On to `N#Cc1ccc(O[C@H]2CC[C@H](NC(=O)c3ccc(N4CCC(CN5CCC6(CC5)CN(c5cc7c(cc5F)C(=O)N(C5CCC(=O)NC5=O)C7=O)C6)CC4)cc3)CC2)cc1Cl` (some centres unmarked) [Compound 191, N-((1r,4r)-4-(3-chloro-4-cyanophenoxy)cyclohexyl)-4-(4-((2-(2-(2,6-dioxopiperidin-3-yl)-6-fluoro-1,3-dioxoisoindolin-5-yl)-2,7-diazaspiro[3.5]nonan-7-yl)methyl)piperidin-1-yl)benzamide], for which the 50% degradation concentration (DC50) under setting [2] was under 10 nM. The Dmax under setting [3] was over 80%. For `N#Cc1ccc(O[C@H]2CC[C@H](NC(=O)c3noc(N4CCC(CN5CCC6(CC5)CN(c5ccc7c(c5)C(=O)N(C5CCC(=O)NC5=O)C7=O)C6)CC4)n3)CC2)cc1Cl` (some centres unmarked) [Compound 415], the DC50 was under 10 nM and the greatest degradation seen (Dmax) is over 80%.

For orientation: DC50 means the midpoint of the concentration-degradation curve. A word on the Dmax: it is the greatest extent of degradation seen.
